Laboratory results reported in publication PMC6472001, “Phenolic Compounds from Humulus lupulus as Natural Antimicrobial Products: New Weapons in the Fight against Methicillin Resistant Staphylococcus aureus, Leishmania mexicana and Trypanosoma brucei Strains” (Molecules, 2019).

How the values were obtained:
Type in all cases: cell-based
[1] = system: Acinetobacter baumannii 9010; assay: First screening, agar dilution MIC
Method: (§1) Clinical bacterial isolates from human samples collected in Lille (France) and some collection strains were used. The first screening step on pathogenic bacteria was carried out with crude hydro-alcoholic extracts of different hop parts (Table 1). The second screening was performed using sub-extracts of cones on Gram-positive bacteria, including methicillin-sensitive Staphylococcus aureus (MSSA) and methicillin-resistant Staphylococcus aureus […] (Table 2). These tests were carried out on Petri dishes, Mueller-Hinton Agar (MHA) (Oxoid, UK) was mixed with the plant extract solution in MeOH at 5% (solvent control: 5% MeOH). Final extract concentrations in Petri dishes ranged from 1250 to 4.9 µg/mL. A multi-headed inoculator allowed spotting bacterial strains at 10^5 CFU/mL in cysteinated Ringer (CR) solution (Merck®, France). Minimal Inhibitory Concentrations (MICs) were visually determined after 24 h of incubation at 37 °C.

[2] = system: Acinetobacter baumannii 9011; assay: First screening, agar dilution MIC
Method: as §1

[3] = system: Citrobacter freundii 11041; assay: First screening, agar dilution MIC
Method: as §1

[4] = system: Citrobacter freundii 11042; assay: First screening, agar dilution MIC
Method: as §1

[5] = system: Corynebacterium T25-17; assay: First screening, agar dilution MIC
Method: as §1

[6] = system: Enterobacter cloacae 11050; assay: First screening, agar dilution MIC
Method: as §1

[7] = system: Enterobacter cloacae 11051; assay: First screening, agar dilution MIC
Method: as §1

[8] = system: Enterobacter cloacae 11053; assay: First screening, agar dilution MIC
Method: as §1

[9] = system: Enterococcus faecalis C159-6; assay: First screening, agar dilution MIC
Method: as §1

[10] = system: Enterococcus sp. 8153; assay: First screening, agar dilution MIC
Method: as §1

[11] = system: Escherichia coli 8138; assay: First screening, agar dilution MIC
Method: as §1

[12] = system: Escherichia coli 8157; assay: First screening, agar dilution MIC
Method: as §1

[13] = system: Escherichia coli ATCC 25922; assay: First screening, agar dilution MIC
Method: as §1

[14] = system: Klebsiella pneumoniae 11016; assay: First screening, agar dilution MIC
Method: as §1

[15] = system: Klebsiella pneumoniae 11017; assay: First screening, agar dilution MIC
Method: as §1

[16] = system: Mycobacterium smegmatis 5003; assay: First screening, agar dilution MIC
Method: as §1

[17] = system: Proteus mirabilis 11060; assay: First screening, agar dilution MIC
Method: as §1

[18] = system: Providencia stuartii 11038; assay: First screening, agar dilution MIC
Method: as §1

[19] = system: Pseudomonas aeruginosa 8131; assay: First screening, agar dilution MIC
Method: as §1

[20] = system: Pseudomonas aeruginosa ATCC 27583; assay: First screening, agar dilution MIC
Method: as §1

[21] = system: Salmonella sp. 11033; assay: First screening, agar dilution MIC
Method: as §1

[22] = system: Serratia marcescens 11056; assay: First screening, agar dilution MIC
Method: as §1

[23] = system: Serratia marcescens 11057; assay: First screening, agar dilution MIC
Method: as §1

[24] = system: Staphylococcus aureus 8146; assay: First screening, agar dilution MIC
Method: as §1

[25] = system: Staphylococcus aureus 8147; assay: First screening, agar dilution MIC
Method: as §1

[26] = system: Staphylococcus epidermidis 10282; assay: First screening, agar dilution MIC
Method: as §1

[27] = system: Staphylococcus epidermidis 5001; assay: First screening, agar dilution MIC
Method: as §1

[28] = system: Staphylococcus lugdunensis T26A3; assay: First screening, agar dilution MIC
Method: as §1

[29] = system: Staphylococcus warneri T12A12; assay: First screening, agar dilution MIC
Method: as §1

[30] = system: Stenotrophomonas maltophilia; assay: First screening, agar dilution MIC
Method: as §1

[31] = system: Streptococcus agalactiae T25-7; assay: First screening, agar dilution MIC
Method: as §1

[32] = system: Streptococcus agalactiae T53C2; assay: First screening, agar dilution MIC
Method: as §1

[33] = system: Streptococcus dysgalactiae T46C14; assay: First screening, agar dilution MIC
Method: as §1

[34] = system: Corynebacterium T25-17; assay: Second screening, agar dilution MIC; conditions: Table 2
Method: as §1

[35] = system: Enterococcus faecalis T26-B7; assay: Second screening, agar dilution MIC
Method: as §1

[36] = system: Enterococcus faecalis T34-2; assay: Second screening, agar dilution MIC
Method: as §1

[37] = system: Enterococcus faecalis T37A4; assay: Second screening, agar dilution MIC
Method: as §1

[38] = system: Enterococcus faecalis T39-C11; assay: Second screening, agar dilution MIC
Method: as §1

[39] = system: Staphylococcus aureus 8147; assay: Second screening, agar dilution MIC; conditions: Table 2
Method: as §1

[40] = system: Staphylococcus aureus CIP 224; assay: Second screening, agar dilution MIC
Method: as §1

[41] = system: Staphylococcus aureus T1.1; assay: Second screening, agar dilution MIC
Method: as §1

[42] = system: Staphylococcus aureus T25.10; assay: Second screening, agar dilution MIC
Method: as §1

[43] = system: Staphylococcus aureus T25.3; assay: Second screening, agar dilution MIC
Method: as §1

[44] = system: Staphylococcus aureus T25.9; assay: Second screening, agar dilution MIC
Method: as §1

[45] = system: Staphylococcus aureus T26A4; assay: Second screening, agar dilution MIC
Method: as §1

[46] = system: Staphylococcus aureus T28.1; assay: Second screening, agar dilution MIC
Method: as §1

[47] = system: Staphylococcus aureus T36B1; assay: Second screening, agar dilution MIC
Method: as §1

[48] = system: Staphylococcus aureus T47A12; assay: Second screening, agar dilution MIC
Method: as §1

[49] = system: Staphylococcus aureus T6.7; assay: Second screening, agar dilution MIC
Method: as §1

[50] = system: Staphylococcus epidermidis 5001; assay: Second screening, agar dilution MIC; conditions: Table 2
Method: as §1

[51] = system: Staphylococcus lugdunensis T26A3; assay: Second screening, agar dilution MIC; conditions: Table 2
Method: as §1

[52] = system: Staphylococcus pettenkoferi T3.3; assay: Second screening, agar dilution MIC
Method: as §1

[53] = system: Staphylococcus saprophyticus 08237; assay: Second screening, agar dilution MIC
Method: as §1

[54] = system: Streptococcus agalactiae 13225; assay: Second screening, agar dilution MIC
Method: as §1

[55] = system: Streptococcus agalactiae 13226; assay: Second screening, agar dilution MIC
Method: as §1

[56] = system: Streptococcus agalactiae T25.7; assay: Second screening, agar dilution MIC
Method: as §1

[57] = system: Streptococcus agalactiae T38.2; assay: Second screening, agar dilution MIC
Method: as §1

[58] = system: Streptococcus agalactiae T40A2; assay: Second screening, agar dilution MIC
Method: as §1

**Q.** Which results are given for `CN[C@H](CC(C)C)C(=O)N[C@H]1C(=O)N[C@@H](CC(N)=O)C(=O)N[C@H]2C(=O)N[C@H]3C(=O)N[C@H](C(=O)N[C@H](C(=O)O)c4cc(O)cc(O)c4-c4cc3ccc4O)[C@H](O)c3ccc(c(Cl)c3)Oc3cc2cc(c3O[C@@H]2O[C@H](CO)[C@@H](O)[C@H](O)[C@H]2O[C@H]2C[C@](C)(N)[C@H](O)[C@H](C)O2)Oc2ccc(cc2Cl)[C@H]1O` [VAN, Vancomycin]?
**A.** Susceptibility to VAN [1]: R (R > 16); Susceptibility to VAN [2]: R (R > 16); Susceptibility to VAN [3]: R (R > 16); Susceptibility to VAN [4]: R (R > 16); Susceptibility to VAN [5]: S (Vancomycin (VAN) S ≤ 4); Susceptibility to VAN [6]: R (R > 16); Susceptibility to VAN [7]: R (R > 16); Susceptibility to VAN [8]: R (R > 16); Susceptibility to VAN [9]: S (Vancomycin (VAN) S ≤ 4); Susceptibility to VAN [10]: S (Vancomycin (VAN) S ≤ 4); Susceptibility to VAN [11]: R (R > 16); Susceptibility to VAN [12]: R (R > 16); Susceptibility to VAN [13]: R (R > 16); Susceptibility to VAN [14]: R (R > 16); Susceptibility to VAN [15]: R (R > 16); Susceptibility to VAN [16]: S (Vancomycin (VAN) S ≤ 4); Susceptibility to VAN [17]: R (R > 16); Susceptibility to VAN [18]: R (R > 16); Susceptibility to VAN [19]: R (R > 16); Susceptibility to VAN [20]: R (R > 16); Susceptibility to VAN [21]: R (R > 16); Susceptibility to VAN [22]: R (R > 16); Susceptibility to VAN [23]: R (R > 16); Susceptibility to VAN [24]: S (Vancomycin (VAN) S ≤ 4); Susceptibility to VAN [25]: S (Vancomycin (VAN) S ≤ 4); Susceptibility to VAN [26]: S (Vancomycin (VAN) S ≤ 4); Susceptibility to VAN [27]: S (Vancomycin (VAN) S ≤ 4); Susceptibility to VAN [28]: S (Vancomycin (VAN) S ≤ 4); Susceptibility to VAN [29]: R (R > 16); Susceptibility to VAN [30]: R (R > 16); Susceptibility to VAN [31]: S (Vancomycin (VAN) S ≤ 4); Susceptibility to VAN [32]: S (Vancomycin (VAN) S ≤ 4); Susceptibility to VAN [33]: S (Vancomycin (VAN) S ≤ 4); Susceptibility to VAN [34]: S (Vancomycin (VAN) S ≤ 4); Susceptibility to VAN [35]: S (Vancomycin (VAN) S ≤ 4); Susceptibility to VAN [36]: S (Vancomycin (VAN) S ≤ 4); Susceptibility to VAN [37]: S (Vancomycin (VAN) S ≤ 4); Susceptibility to VAN [38]: S (Vancomycin (VAN) S ≤ 4); Susceptibility to VAN [39]: S (Vancomycin (VAN) S ≤ 4); Susceptibility to VAN [40]: S (Vancomycin (VAN) S ≤ 4); Susceptibility to VAN [41]: S (Vancomycin (VAN) S ≤ 4); Susceptibility to VAN [42]: S (Vancomycin (VAN) S ≤ 4); Susceptibility to VAN [43]: S (Vancomycin (VAN) S ≤ 4); Susceptibility to VAN [44]: S (Vancomycin (VAN) S ≤ 4); Susceptibility to VAN [45]: S (Vancomycin (VAN) S ≤ 4); Susceptibility to VAN [46]: S (Vancomycin (VAN) S ≤ 4); Susceptibility to VAN [47]: S (Vancomycin (VAN) S ≤ 4); Susceptibility to VAN [48]: S (Vancomycin (VAN) S ≤ 4); Susceptibility to VAN [49]: S (Vancomycin (VAN) S ≤ 4); Susceptibility to VAN [50]: S (Vancomycin (VAN) S ≤ 4); Susceptibility to VAN [51]: S (Vancomycin (VAN) S ≤ 4); Susceptibility to VAN [52]: S (Vancomycin (VAN) S ≤ 4); Susceptibility to VAN [53]: S (Vancomycin (VAN) S ≤ 4); Susceptibility to VAN [54]: S (Vancomycin (VAN) S ≤ 4); Susceptibility to VAN [55]: S (Vancomycin (VAN) S ≤ 4); Susceptibility to VAN [56]: S (Vancomycin (VAN) S ≤ 4); Susceptibility to VAN [57]: S (Vancomycin (VAN) S ≤ 4); Susceptibility to VAN [58]: S (Vancomycin (VAN) S ≤ 4)
